Like-named read-outs stand apart in the source and are kept apart here.

One experiment deals with human Gal-3 (hGal-3) (Homo sapiens (Human), UniProt P17931). The experiment is described as follows: competitive binding assay: biotinylated hGal-3 binding to microplate-adsorbed asialofetuin (ASF). In a few lines: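 Compounds serially diluted in DMSO compete with asialofetuin for biotinylated human Gal-3; plates are incubated 3 h at 4 °C, washed, then treated 1 h at 4 °C with streptavidin-peroxidase (80 ng/mL) and developed with ABTS. IC50 values are means of several measurements.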

The next experiment deals with human Gal-1 (hGal-1) (Homo sapiens (Human), UniProt P09382). The experiment can be described thus: competitive binding assay: biotinylated hGal-1 binding to microplate-adsorbed asialofetuin (ASF). The settings on record: Table 15; read-out: IC50 (Galectin-1 inhibition). In a few lines: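 Biotinylated human Gal-1 (300-1000 ng/mL) competes with serially diluted compound for binding to ASF-coated plates, 3 h at 4° C. Bound protein detected with streptavidin-peroxidase and ABTS substrate (spectrophotometric). IC50 given as mean of several measurements.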

Setting [1] is: Gal-3 inhibition, binding of biotinylated hGal-3 to ASF, mean values, read-out: IC50.
Where [2] appears, read: Table 10, 2-OMe-Gal inhibitors, read-out: IC50 (Gal-3 inhibition).
[3] abbreviates: Table 5, read-out: IC50 (Gal-3 inhibition).

Chain of human Gal-1 (hGal-1) (P09382 whole entry): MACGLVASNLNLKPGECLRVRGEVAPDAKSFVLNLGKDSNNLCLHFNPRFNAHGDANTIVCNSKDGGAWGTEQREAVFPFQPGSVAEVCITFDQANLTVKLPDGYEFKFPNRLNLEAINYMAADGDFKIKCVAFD
Chain of human Gal-3 (hGal-3) (P17931 whole entry): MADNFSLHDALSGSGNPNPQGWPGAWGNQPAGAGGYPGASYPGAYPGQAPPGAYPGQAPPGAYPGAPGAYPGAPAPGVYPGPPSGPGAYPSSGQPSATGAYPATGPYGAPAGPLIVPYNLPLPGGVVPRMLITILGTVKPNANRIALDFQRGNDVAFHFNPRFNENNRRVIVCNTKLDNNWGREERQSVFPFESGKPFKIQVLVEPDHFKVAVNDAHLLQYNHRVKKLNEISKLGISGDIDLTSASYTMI

Take `Cc1nc(C(S[C@@H]2O[C@H](CO)[C@H](O)[C@H](n3cc(-c4cc(F)c(F)c(F)c4)nn3)[C@H]2O)C(C)(C)O)c(C)o1` (stereo partly drawn) [Example 2.31.122., (2S,3R,4S,5R,6R)-2-((1-(2,5-Dimethyloxazol-4-yl)-2-hydroxy-2-methylpropyl)thio)-6-(hydroxymethyl)-4-(4-(3,4,5-trifluorophenyl)-1H-1,2,3-triazol-1-yl)tetrahydro-2H-pyran-3,5-diol]: the IC50 at human Gal-3 (hGal-3) (setting [1]) was found to be 880 nM; at human Gal-1 (hGal-1), 2140 nM.
As for `CCc1onc([C@@H](S[C@@H]2O[C@H](CO)[C@H](O)[C@H](n3cc(-c4cc(F)c(F)c(F)c4)nn3)[C@H]2OC)C2(O)CCC(F)(F)CC2)c1C` [Example 2.44.140R.I., (2R,3R,4S,5R,6S)-6-(((R)-(4,4-Difluoro-1-hydroxycyclohexyl)(5-ethyl-4-methylisoxazol-3-yl)methyl)thio)-2-(hydroxymethyl)-5-methoxy-4-(4-(3,4,5-trifluorophenyl)-1H-1,2,3-triazol-1-yl)tetrahydro-2H-pyran-3-ol], the results for the IC50 at human Gal-3 (hGal-3) (setting [2]) and at human Gal-1 (hGal-1) were 120 nM and 700 nM, respectively.
Take `CN1CCC(O)(C(S[C@@H]2O[C@H](CO)[C@H](O)[C@H](n3cc(-c4cc(F)c(F)c(F)c4)nn3)[C@H]2O)c2ccccc2C(F)(F)F)CC1` (stereo partly drawn) [Example 2.40.112., (2S,3R,4S,5R,6R)-2-(((4-Hydroxy-1-methylpiperidin-4-yl)(2-(trifluoromethyl)phenyl)methyl)thio)-6-(hydroxymethyl)-4-(4-(3,4,5-trifluorophenyl)-1H-1,2,3-triazol-1-yl)tetrahydro-2H-pyran-3,5-diol]: the results for the IC50 at human Gal-3 (hGal-3) (setting [3]) and on human Gal-1 (hGal-1) were 130 nM and 420 nM, respectively.
In the case of `CNS(=O)(=O)N1CCC(O)(C(S[C@@H]2O[C@H](CO)[C@H](O)[C@H](n3cc(-c4cc(F)c(F)c(F)c4)nn3)[C@H]2O)c2ccccc2C(F)(F)F)CC1` (stereo partly drawn) [Example 2.46.112., 4-((((2S,3R,4S,5R,6R)-3,5-Dihydroxy-6-(hydroxymethyl)-4-(4-(3,4,5-trifluorophenyl)-1H-1,2,3-triazol-1-yl)tetrahydro-2H-pyran-2-yl)thio)(2-(trifluoromethyl)phenyl)methyl)-4-hydroxy-N-methylpiperidine-1-sulfonamide], the concentration for half-maximal inhibition (IC50) on human Gal-3 (hGal-3) (setting [1]) was found to be 50 nM; on human Gal-1 (hGal-1), 270 nM.
As to `CC(C)(O)C(S[C@@H]1O[C@H](CO)[C@H](O)[C@H](n2cc(-c3cc(F)c(F)c(F)c3)nn2)[C@H]1O)c1cccc(Cl)c1Cl` (stereo partly drawn) [Example 2.31.113., (2S,3R,4S,5R,6R)-2-((1-(2,3-Dichlorophenyl)-2-hydroxy-2-methylpropyl)thio)-6-(hydroxymethyl)-4-(4-(3,4,5-trifluorophenyl)-1H-1,2,3-triazol-1-yl)tetrahydro-2H-pyran-3,5-diol], the IC50 on human Gal-3 (hGal-3) (setting [1]) is 460 nM; at human Gal-1 (hGal-1) it was 3750 nM.
Regarding `CN1CCC(O)([C@@H](S[C@@H]2O[C@H](CO)[C@H](O)[C@H](n3cc(-c4cc(F)c(F)c(F)c4)nn3)[C@H]2O)c2ncccc2C(F)(F)F)CC1` [Example 2.40.125S., (2S,3R,4S,5R,6R)-2-(((S)-(4-Hydroxy-1-methylpiperidin-4-yl)(3-(trifluoromethyl)pyridin-2-yl)methyl)thio)-6-(hydroxymethyl)-4-(4-(3,4,5-trifluorophenyl)-1H-1,2,3-triazol-1-yl)tetrahydro-2H-pyran-3,5-diol], the figures for the IC50 on human Gal-3 (hGal-3) (setting [3]) and at human Gal-1 (hGal-1) were 3650 nM and 11200 nM, respectively.
Regarding `CO[C@@H]1[C@@H](n2cc(-c3cc(F)c(F)c(F)c3)nn2)[C@@H](O)[C@@H](CO)O[C@H]1S[C@H](c1nccc(Cl)c1C)C1(O)CCC(F)(F)CC1` [Example 2.44.141R.I., (2R,3R,4S,5R,6S)-6-(((R)-(4-Chloro-3-methylpyridin-2-yl)(4,4-difluoro-1-hydroxycyclohexyl)methyl)thio)-2-(hydroxymethyl)-5-methoxy-4-(4-(3,4,5-trifluorophenyl)-1H-1,2,3-triazol-1-yl)tetrahydro-2H-pyran-3-ol], the half-maximal inhibitory concentration (IC50) on human Gal-3 (hGal-3) (Table 11, read-out: IC50 (Gal-3 inhibition)) stood at 70 nM; on human Gal-1 (hGal-1) it was 350 nM.
For `Cc1conc1C(S[C@@H]1O[C@H](CO)[C@H](O)[C@H](n2cc(-c3cc(F)c(F)c(F)c3)nn2)[C@H]1O)C1(O)CCS(=O)(=O)CC1` (stereo partly drawn) [Example 2.66.120., 4-((((2S,3R,4S,5R,6R)-3,5-Dihydroxy-6-(hydroxymethyl)-4-(4-(3,4,5-trifluorophenyl)-1H-1,2,3-triazol-1-yl)tetrahydro-2H-pyran-2-yl)thio)(4-methylisoxazol-3-yl)methyl)-4-hydroxytetrahydro-2H-thiopyran 1,1-dioxide], the concentration for half-maximal inhibition (IC50) was determined as 140 nM at human Gal-3 (hGal-3) (setting [1]) and 330 nM on human Gal-1 (hGal-1).
Turning to `CO[C@@H]1[C@@H](n2cc(-c3cc(F)c(Br)c(F)c3)nn2)[C@@H](O)[C@@H](CO)O[C@H]1SC(c1ncccc1C)C1(O)CCC(F)(F)CC1` (stereo partly drawn) [Example 18.44.126.I., (2R,3R,4S,5R,6S)-4-(4-(4-Bromo-3,5-difluorophenyl)-1H-1,2,3-triazol-1-yl)-6-(((4,4-difluoro-1-hydroxycyclohexyl)(3-methylpyridin-2-yl)methyl)thio)-2-(hydroxymethyl)-5-methoxytetrahydro-2H-pyran-3-ol], the 50% inhibitory concentration (IC50) at human Gal-3 (hGal-3) (Table 14, read-out: IC50 (Gal-3 inhibition)) came out at 120 nM; at human Gal-1 (hGal-1), 3470 nM.
Regarding `CO[C@@H]1[C@@H](n2cc(-c3cc(F)c(F)c(F)c3)nn2)[C@@H](O)[C@@H](CO)O[C@H]1SC(c1ccccc1C(F)(F)F)C1(O)CCN(S(=O)(=O)C2CC2)CC1` (stereo partly drawn) [Example 2.51.112.I., 1-(Cyclopropylsulfonyl)-4-((((2S,3R,4S,5R,6R)-5-hydroxy-6-(hydroxymethyl)-3-methoxy-4-(4-(3,4,5-trifluorophenyl)-1H-1,2,3-triazol-1-yl)tetrahydro-2H-pyran-2-yl)thio)(2-(trifluoromethyl)phenyl)methyl)piperidin-4-ol], the figures for the IC50 on human Gal-3 (hGal-3) (setting [1]) and at human Gal-1 (hGal-1) were 80 nM and 350 nM, respectively.
Take `Cc1nc(C)c([C@@H](S[C@@H]2O[C@H](CO)[C@H](O)[C@H](n3cc(-c4cc(F)c(F)c(F)c4)nn3)[C@H]2O)C(C)(C)O)nc1C` [Example 2.31.119R., (2S,3R,4S,5R,6R)-2-(((R)-2-Hydroxy-2-methyl-1-(3,5,6-trimethylpyrazin-2-yl)propyl)thio)-6-(hydroxymethyl)-4-(4-(3,4,5-trifluorophenyl)-1H-1,2,3-triazol-1-yl)tetrahydro-2H-pyran-3,5-diol]: the half-maximal inhibitory concentration (IC50) is 270 nM at human Gal-3 (hGal-3) (setting [1]) and 1150 nM at human Gal-1 (hGal-1).
With `CCn1ncc(Cl)c1C(S[C@@H]1O[C@H](CO)[C@H](O)[C@H](n2cc(-c3cc(F)c(F)c(F)c3)nn2)[C@H]1OC)C1(O)CCC(F)(F)CC1` (stereo partly drawn) [Example 2.44.139.I., (2R,3R,4S,5R,6S)-6-(((4-Chloro-1-ethyl-1H-pyrazol-5-yl)(4,4-difluoro-1-hydroxycyclohexyl)methyl)thio)-2-(hydroxymethyl)-5-methoxy-4-(4-(3,4,5-trifluorophenyl)-1H-1,2,3-triazol-1-yl)tetrahydro-2H-pyran-3-ol], the IC50 was determined as 620 nM on human Gal-3 (hGal-3) (setting [2]) and 3900 nM at human Gal-1 (hGal-1).
As for `OC[C@H]1O[C@@H](SC(c2ccccc2C(F)(F)F)C2(O)CCC(F)(F)CC2)[C@H](O)[C@@H](n2cc(-c3cc(F)c(F)c(F)c3)nn2)[C@H]1O` (stereo partly drawn) [Example 2.44.112., (2S,3R,4S,5R,6R)-2-(((4,4-Difluoro-1-hydroxycyclohexyl)(2-(trifluoromethyl)phenyl)methyl)thio)-6-(hydroxymethyl)-4-(4-(3,4,5-trifluorophenyl)-1H-1,2,3-triazol-1-yl)tetrahydro-2H-pyran-3,5-diol], the IC50 on human Gal-3 (hGal-3) (setting [3]) came out at 300 nM; on human Gal-1 (hGal-1), 950 nM.
In the case of `Cc1ccccc1[C@@H](S[C@@H]1O[C@H](CO)[C@H](O)[C@H](n2cc(-c3cc(F)c(F)c(F)c3)nn2)[C@H]1O)C1(O)CCCCC1` [Example 2.39.102R., (2S,3R,4S,5R,6R)-2-(((R)-(1-Hydroxycyclohexyl)(o-tolyl)methyl)thio)-6-(hydroxymethyl)-4-(4-(3,4,5-trifluorophenyl)-1H-1,2,3-triazol-1-yl)tetrahydro-2H-pyran-3,5-diol], the values for the half-maximal inhibitory concentration (IC50) on human Gal-3 (hGal-3) (setting [3]) and on human Gal-1 (hGal-1) were 90 nM and 1140 nM, respectively.
As to `Cc1noc(C2CC2)c1[C@@H](S[C@@H]1O[C@H](CO)[C@H](O)[C@H](n2cc(-c3cc(F)c(F)c(F)c3)nn2)[C@H]1O)C1(O)CCCCC1` [Example 2.39.128R., (2S,3R,4S,5R,6R)-2-(((R)-(5-Cyclopropyl-3-methylisoxazol-4-yl)(1-hydroxycyclohexyl)methyl)thio)-6-(hydroxymethyl)-4-(4-(3,4,5-trifluorophenyl)-1H-1,2,3-triazol-1-yl)tetrahydro-2H-pyran-3,5-diol], the IC50 at human Gal-3 (hGal-3) (setting [3]) was 190 nM; at human Gal-1 (hGal-1), 1030 nM.
For “(2S,3R,4S,5R,6R)-2-(((S)-((S)-4-Hydroxy-2,2-dimethyltetrahydro-2H-pyran-4-yl)(o-tolyl)methyl)thio)-6-(hydroxymethyl)-4-(4-(3,4,5-trifluorophenyl)-1H-1,2,3-triazol-1-yl)tetrahydro-2H-pyran-3,5-diol [Example 2.43.112SS.]”, in that order: 7300 nM and 19400 nM.
As to “(2S,3R,4S,5R,6R)-2-(((S)-((R)-4-Hydroxy-2,2-dimethyltetrahydro-2H-pyran-4-yl)(o-tolyl)methyl)thio)-6-(hydroxymethyl)-4-(4-(3,4,5-trifluorophenyl)-1H-1,2,3-triazol-1-yl)tetrahydro-2H-pyran-3,5-diol [Example 2.43.112SR.]”, the concentration for half-maximal inhibition (IC50) on human Gal-3 (hGal-3) (setting [3]) amounted to 4900 nM; at human Gal-1 (hGal-1) it was 10900 nM.
For “(2S,3R,4S,5R,6R)-2-(((R)-(2-Cyclopropylphenyl)(4,4-difluoro-1-hydroxycyclohexyl)methyl)thio)-6-(hydroxymethyl)-4-(4-(3,4,5-trifluorophenyl)-1H-1,2,3-triazol-1-yl)tetrahydro-2H-pyran-3,5-diol [Example 2.44.106R.]”, the IC50 at human Gal-3 (hGal-3) (setting [3]) is 60 nM; on human Gal-1 (hGal-1) it was 20 nM.

(Values after patent US12404295B2, “(Hetero)aryl-methyl-thio-beta-D-galactopyranoside derivatives” (Idorsia Pharmaceuticals Ltd, priority 2019, dated 2025).)
